Experiment [1] is described as follows: inhibitors of firefly luciferase expression or activity, dose response, H4 neuroglioma cells, luminescence (AID 1990). Type of experiment: functional, cell-based.
Experiment [2] in a line: insulin promoter down-regulators in MIN6 cells, imaging, high-content screening, mouse beta cells (AID 1628). Type of experiment: functional.
The nature of experiment [3]: Luminescence Cell-Based Dose Response HTS to Identify Inhibitors of 5'UTR Stem-Loop Driven Prion Protein mRNA Translation in H4 Neuroglioblastoma Cells. [Related pubchem assays: 1827 (Project Summary), 1813 (Primary HTS)]. Type of experiment: functional.
Experiment [4] is described as follows: cytotoxicity in MIN6 insulinoma cells, dose response, cytotoxicity control, cell-based, mouse insulinoma (AID 2122).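 Further: confirmatory high-throughput counterscreen run to flag cytotoxic compounds; mouse MIN-6 beta cells carrying an insulin promoter eGFP reporter.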 The class given is functional.
Experiment [5] addresses Intestinal-type alkaline phosphatase (Homo sapiens, UniProt P09923). In words: human IAP activators, dose response, biochemical, luminescent, uHTS hits, set 2 (AID 488817).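 Further: potency of activators that raise enzyme activity.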 Type of experiment: functional.
Experiment [6] concerns the target T1, Alkaline phosphatase, tissue-nonspecific isozyme (Homo sapiens, UniProt P05186).
T1 sequence (P05186 whole entry): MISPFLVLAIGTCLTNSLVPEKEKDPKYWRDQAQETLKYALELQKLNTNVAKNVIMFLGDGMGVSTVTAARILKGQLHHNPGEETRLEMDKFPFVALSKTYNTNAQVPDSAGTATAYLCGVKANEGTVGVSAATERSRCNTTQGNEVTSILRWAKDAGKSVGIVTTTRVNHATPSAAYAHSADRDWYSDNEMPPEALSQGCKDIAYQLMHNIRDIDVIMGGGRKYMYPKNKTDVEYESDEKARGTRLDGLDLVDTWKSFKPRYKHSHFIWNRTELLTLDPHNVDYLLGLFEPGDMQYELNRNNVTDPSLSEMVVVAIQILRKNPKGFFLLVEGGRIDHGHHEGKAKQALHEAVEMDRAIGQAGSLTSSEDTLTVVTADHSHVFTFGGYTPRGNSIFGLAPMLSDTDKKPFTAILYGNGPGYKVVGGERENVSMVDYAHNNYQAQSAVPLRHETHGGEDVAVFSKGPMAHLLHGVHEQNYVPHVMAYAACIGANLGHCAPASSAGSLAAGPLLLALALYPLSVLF
The experiment is described as follows: TNAP enzyme activators, dose response, selectivity assay for human IAP activator project, biochemical, TNAP isozyme, human IAP uHTS hits (AID 488886).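 Further: potency of compounds raising TNAP activity as a selectivity check on IAP activators.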 The class given is functional.

A short description of experiment [7]: human group III sPLA2 inhibitors, dose response, biochemical, QFRET, IC50 (AID 743457).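 Further: green fluorescence rise as the enzyme cleaves BODIPY PC-A2 in liposomes; potency for inhibition of the enzyme.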
Experiment [8] deals with T2, Sentrin-specific protease 8 (Homo sapiens, UniProt Q96LD8).
T2 sequence (Q96LD8 whole entry): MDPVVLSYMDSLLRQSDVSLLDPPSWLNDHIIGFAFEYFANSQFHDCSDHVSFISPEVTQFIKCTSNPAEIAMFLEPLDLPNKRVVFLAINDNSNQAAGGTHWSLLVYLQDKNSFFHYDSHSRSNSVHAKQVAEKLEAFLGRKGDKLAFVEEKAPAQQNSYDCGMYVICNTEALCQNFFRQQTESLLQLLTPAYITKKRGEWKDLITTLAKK
The class given is functional.

A further experiment has as its target T3, Caspase-6 (Homo sapiens, UniProt P55212).
T3 sequence (P55212 whole entry): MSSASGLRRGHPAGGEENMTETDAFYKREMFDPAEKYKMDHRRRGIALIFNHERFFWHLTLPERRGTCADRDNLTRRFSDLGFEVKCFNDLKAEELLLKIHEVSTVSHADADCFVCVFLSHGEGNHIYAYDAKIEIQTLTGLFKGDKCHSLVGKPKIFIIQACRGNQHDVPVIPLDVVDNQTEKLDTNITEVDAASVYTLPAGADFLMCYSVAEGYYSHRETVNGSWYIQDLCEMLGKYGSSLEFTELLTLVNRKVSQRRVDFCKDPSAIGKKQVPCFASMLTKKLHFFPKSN
In words: human caspase-6 inhibitors, dose response, biochemical, VEID-R110 fluorescence, cherry-pick (AID 720632).

In experiment [9] the target is Luciferin 4-monooxygenase (Photinus pyralis, UniProt P08659). The experiment is described as follows: Counter Screen for Luciferase-based Assay Positives. [Related pubchem assays: 620, 618, 411 ]. A general note: The purpose of a counterscreen is to sort out artefacts and off-target activity.
Luciferin 4-monooxygenase, sequence (P08659 whole entry): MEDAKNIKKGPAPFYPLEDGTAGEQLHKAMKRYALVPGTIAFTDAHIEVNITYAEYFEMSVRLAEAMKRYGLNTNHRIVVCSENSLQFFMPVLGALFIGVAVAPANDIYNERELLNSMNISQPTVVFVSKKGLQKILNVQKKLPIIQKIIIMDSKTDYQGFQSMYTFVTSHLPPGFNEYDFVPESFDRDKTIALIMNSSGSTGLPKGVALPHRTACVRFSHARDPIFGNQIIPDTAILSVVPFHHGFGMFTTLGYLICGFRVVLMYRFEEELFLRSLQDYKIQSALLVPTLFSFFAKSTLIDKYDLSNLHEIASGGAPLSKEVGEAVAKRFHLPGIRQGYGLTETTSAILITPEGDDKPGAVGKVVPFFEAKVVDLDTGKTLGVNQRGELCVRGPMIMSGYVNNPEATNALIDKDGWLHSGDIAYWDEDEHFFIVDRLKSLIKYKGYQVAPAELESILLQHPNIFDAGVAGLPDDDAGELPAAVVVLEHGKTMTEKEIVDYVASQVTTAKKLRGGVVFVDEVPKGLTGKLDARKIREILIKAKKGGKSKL
Another experiment deals with HT-1080. In words: cytotoxicity in HT1080 fibrosarcoma cells, cell-based, fluorescence readout (AID 620). Type of experiment: functional. The following applies: Homo sapiens.
Experiment [10] can be described thus: Vero E6 cell cytotoxicity, dose response, cytotoxicity control for non-replicating M. tuberculosis project, secondary assay (AID 492998). As to conditions: Vero C1008. The class given is functional, VeroE6.
For a further experiment, the target named is Nonstructural protein 1 (Influenza A virus, UniProt Q194T2). Type of experiment: functional, Influenza A virus (A/California/07/2009(H1N1)).
Nonstructural protein 1, sequence (Q194T2 whole entry, the tested form may be a part): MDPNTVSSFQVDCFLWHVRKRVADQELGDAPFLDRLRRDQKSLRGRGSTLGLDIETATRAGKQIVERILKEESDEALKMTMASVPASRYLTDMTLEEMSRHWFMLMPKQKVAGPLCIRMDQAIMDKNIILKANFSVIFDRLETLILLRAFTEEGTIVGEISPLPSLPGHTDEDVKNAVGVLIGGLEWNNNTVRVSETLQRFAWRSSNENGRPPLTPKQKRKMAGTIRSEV
A short description of experiment [11]: inhibitors of HIV Env-driven cell fusion, dose response, cherry-pick (AID 652057). The class given is functional, cell-based.
Experiment [12] can be described thus: CEM21 lymphoblast cell cytotoxicity, dose response, cytotoxicity control for viral fusion inhibitor project, CellTiter-Glo luminescence, cherry-picked (AID 652042).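 Further: potency for signal decrease meaning cytotoxicity.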 Type of experiment: functional, cell-based.
Experiment [13] in a line: ZM109 Env clade C HIV-1 fusion inhibitors, dose response, HeLa effector, CEM target cells, luciferase, cherry-pick (AID 652058). The class given is functional, cell-based.
Experiment [14] in a line: off-target signal loss in HeLa-CEM21 co-culture – HeLa F-luc CTL cells, cherry-picked, counter-screen for HIV-1 Env fusion inhibitor project, dose response (AID 652040).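 Further: potency for signal decrease marking cytotoxic or nonspecific inhibition.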 Type of experiment: functional, cell-based.
Experiment [15] in a line: inhibitors of intracellular T. cruzi replication, confirmation, NIH3T3 host cells, beta-gal luminescence (AID 2044).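 Further: intracellular parasites grown in NIH/3T3 mouse fibroblasts as host cells; luminescent beta-galactosidase reporter signal from transgenic T. cruzi replicating inside host cells; inhibitors lower the luminescence signal.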 The class given is functional, cell-based.
A short description of another experiment: cells. Type of experiment: functional, cell-based.
Experiment [16] is described as follows: cytotoxicity toward NIH3T3 fibroblasts, dose response, counter-screen, cell-based, ATP luminescence, mouse fibroblasts (AID 2010).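 Further: cells exposed to compound for about 90 hours before reading.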 Type of experiment: functional.
Experiment [17] deals with Heat shock protein HSP 90-alpha (Homo sapiens, UniProt P07900). The class given is functional, organism-based.
The subject of another experiment is Jurkat. The experiment is described as follows: SAR Analysis of small molecule inhibitors of T-cell specific antigen receptor-induced NF-kB activation in a Jurkat cell line using a luminescence assay - Set 2. [Related pubchem assays (depositor defined):AID435003, AID435012, AID465]. The following applies: Homo sapiens. The class given is functional, cell-based.

In experiment [18] the target is ATP-dependent molecular chaperone HSP82 (Candida albicans (strain WO-1) (Yeast), UniProt C4YTQ8). In words: loss of DOC-induced GRE-beta-galactosidase reporter signal, dose response, Hsp90 inhibitor project, S. cerevisiae, luminescence (AID 2400).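 Further: beta-galactosidase luminescence from glucocorticoid response element reporter as proxy for Hsp90 function; inhibitor potency where signal loss means Hsp90 inhibition.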 Type of experiment: functional, cell-based.
ATP-dependent molecular chaperone HSP82, sequence (C4YTQ8 whole entry): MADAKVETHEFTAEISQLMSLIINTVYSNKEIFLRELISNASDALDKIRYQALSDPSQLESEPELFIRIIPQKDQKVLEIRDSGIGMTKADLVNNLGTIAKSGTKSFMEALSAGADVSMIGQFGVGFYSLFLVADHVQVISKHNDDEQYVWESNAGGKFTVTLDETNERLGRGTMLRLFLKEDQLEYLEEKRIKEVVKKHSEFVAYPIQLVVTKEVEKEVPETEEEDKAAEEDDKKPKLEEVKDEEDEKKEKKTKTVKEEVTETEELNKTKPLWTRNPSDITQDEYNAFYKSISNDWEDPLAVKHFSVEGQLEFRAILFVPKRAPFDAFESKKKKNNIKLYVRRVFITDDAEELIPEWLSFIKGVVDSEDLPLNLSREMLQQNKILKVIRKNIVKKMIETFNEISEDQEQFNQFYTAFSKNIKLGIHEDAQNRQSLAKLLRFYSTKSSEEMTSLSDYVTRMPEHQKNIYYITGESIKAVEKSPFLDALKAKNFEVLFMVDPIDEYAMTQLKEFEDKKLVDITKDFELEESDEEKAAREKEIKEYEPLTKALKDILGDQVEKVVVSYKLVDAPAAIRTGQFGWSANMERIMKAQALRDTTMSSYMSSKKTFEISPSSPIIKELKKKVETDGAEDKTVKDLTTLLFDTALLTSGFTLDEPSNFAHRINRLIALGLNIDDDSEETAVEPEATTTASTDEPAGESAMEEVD
Experiment [19] can be described thus: Shn3 3'UTR reporter inhibitors, dose response, cell-based, Clone20 osteoblasts, firefly luciferase, cherry-picked (AID 624132).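 Further: firefly luciferase luminescence from reporter carrying the Shn3 3'UTR in osteoblasts.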 Type of experiment: functional.
Experiment [20] in a line: cytotoxicity in COV362 ovarian cancer cells, dose response, cytotoxicity control for PAX8 inhibitor project, cell-based, plate reader, dry powder, SA12 (AID 743144). Type of experiment: functional.
A short description of experiment [21]: IOSE-T80 ovarian epithelial cell cytotoxicity, dose response, cytotoxicity control for PAX8 inhibitor project, plate reader, dry powder samples (AID 743045). Type of experiment: functional, cell-based.
Experiment [22] can be described thus: A2780 ovarian cancer cell cytotoxicity, dose response, cytotoxicity control, plate reader, dry powder samples (AID 743046). The class given is functional, cell-based.
The nature of experiment [23]: NIH:OVCAR-3 ovarian cancer cell cytotoxicity, dose response, PAX8 inhibitor project, plate reader, dry powder samples (AID 743044). The class given is functional, cell-based.
The nature of experiment [24]: PAX5 activity inhibitors, dose response, selectivity assay for PAX8 inhibitor project, cell-based, plate reader, dry powder samples (AID 743047).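 Further: HEK293 cells carrying a Pax5 driven CD19 promoter luciferase reporter; potency of inhibitors that lower reporter luminescence.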 Type of experiment: functional.
Experiment [25] in a line: cytotoxicity in COV434 cells, dose response, cytotoxicity control for PAX8 inhibitor project, cell-based, plate reader, dry powder, SA7 (AID 743145). Type of experiment: functional.

Results on 4 compounds are retold here after ChEMBL document CHEMBL1201862, “PubChem BioAssay data set” (2004).

Activity calls are given as the source filed them. A value given as a limit tells only on which side of the number the result lay.

Intestinal-type alkaline phosphatase, sequence (P09923 whole entry): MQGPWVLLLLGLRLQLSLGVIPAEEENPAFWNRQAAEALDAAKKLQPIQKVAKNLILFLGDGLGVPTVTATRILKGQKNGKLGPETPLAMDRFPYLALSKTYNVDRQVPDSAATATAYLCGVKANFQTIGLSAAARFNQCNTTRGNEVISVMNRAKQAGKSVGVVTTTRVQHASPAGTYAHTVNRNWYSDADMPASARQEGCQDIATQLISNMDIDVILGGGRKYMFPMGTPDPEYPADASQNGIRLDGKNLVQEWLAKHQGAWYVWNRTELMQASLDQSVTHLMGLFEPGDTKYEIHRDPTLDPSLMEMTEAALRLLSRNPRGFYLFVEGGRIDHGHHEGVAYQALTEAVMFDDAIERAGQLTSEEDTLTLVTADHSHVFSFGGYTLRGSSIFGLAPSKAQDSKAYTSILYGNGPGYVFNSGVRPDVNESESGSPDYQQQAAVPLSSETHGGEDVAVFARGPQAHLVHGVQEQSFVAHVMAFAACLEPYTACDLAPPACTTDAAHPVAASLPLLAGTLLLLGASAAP

For the compound `O=C(/C=C/c1cccs1)NC(=S)NNC(=O)c1ccccc1O`, the EC50 – broadly, the concentration that produces a half-maximal response – in experiment [1] is > 120 µM (not active); in [3], 9.65 µM (active); in [5], 11 µM (active); in experiment [6], 11.8 µM (active). For the same compound, the 50% inhibitory concentration (IC50) (usually the concentration needed to halve the response being measured) was 2.78 µM (active) in experiment [2], 2.57 µM (active) in [4] and > 122 µM (inactive) in [7].

Regarding `O=C(N/N=C1\C/C(=N\NC(=O)c2ccncc2)c2ccccc21)c1ccncc1`, in [8], the half-inhibitory concentration (IC50) was 5.02 µM (active). Further, the AC50 (usually the concentration giving half of the maximal activity seen) on Caspase-6 was 0.749 µM (active).

Consider `CC(=O)N(Cc1ccc(F)cc1)C1=C(NCCc2ccccc2)C(=O)c2ccccc2C1=O`, for which the EC50 in experiment [9] is 7.95 µM (active); in the experiment with HT-1080, 15.6 µM (active). Further, the CC50 – broadly, the concentration that lowers cell viability or growth by half – in [10] is 7 µM (active). The IC50 on Nonstructural protein 1 was 32.2 µM (active). The AC50 in experiment [11] was 2.45 µM (active); in experiment [12], 2.16 µM (active); in experiment [13] it was 5.61 µM (active); in experiment [14], 5.21 µM (active).

As to `CCCCC(=O)NC(c1ccccc1)c1ccc2cccnc2c1O` (stereo not given), the half-maximal effective concentration (EC50) is 0.502 µM (active) in [15], > 350 µM (not active) in the experiment “cells”, 1.03 µM (active) in [16] and 24.2 µM (active) in [18]. The half-maximal activity concentration (AC50) in experiment [17] is 25.5 µM (active); in experiment [19], 2.35 µM (active); in experiment [20], 3.28 µM (active); in experiment [21] it was 10.9 µM (active); in [22], 2.13 µM (active); in experiment [23], 2.45 µM (active). In addition, the AC50 in experiment [24] was 2.37 µM (active); in experiment [25], 4.16 µM (active). Further, the half-maximal inhibitory concentration (IC50) in the experiment on Jurkat was 5.62 µM (active).
